# Data published in patent US5707963A, “Methods of using growth inhibitory peptides” (Health Research, Incorporated, priority 1996, dated 1998).
# “And” between values parts separate entries of the source, which are not always exact repeats. Identical values can stand only once. Like-named read-outs stand apart in the source and are kept apart here.
# What was measured:
# [1] = test system: human MCF-7 breast cancer cells; test: In vitro MCF-7 focus assay (estrogen-induced foci formation); assay type: cell-based; settings: for Percent Foci Inhibition: MCF-7 Cell Culture
# Excerpt: In an in vitro bioassay, the MCF-7 focus assay was used for preliminary evaluation of the GIP preparation for both estrogenicity and antiestrogenicity. One of the major consequences of human estrogen exposure is induction of cell proliferation and subsequent structural rearrangement of the acini, a process based on the interactions of multiple estrogen dependent gene expressions. […] The estrogen dependent MCF-7 cell proliferation is primarily a postconfluent event which leads to development of multicellular aggregates (foci). […] The procedure of Gierthy et al. was used for the MCF-7 assay of the GIP (see Gierthy, J. F. et al., "Correlation of in Vitro and in Vivo Growth Suppression of MCF-7 Human Breast Cancer by 2,3,7,8-Tetrachlorodibenzo-p-dioxin" Cancer Research 53:3149-3153 (1993)).
# Briefly, stock MCF-7 cells were suspended in medium (see Gierthy, J. F. et al. 1993) after treatment with trypsin (0.25%) and seeded into 24-well plastic tissue culture plates. The MCF-7 cells were seeded (2 cm^2 /well) at a density of b 10^5 cells/well in 1 ml of medium, and incubated at 37° C. in a humidified atmosphere containing 5% CO2. The cultures were refed at 24 hours and every 4-5 days thereafter with 2 ml medium supplemented with 1×10^-9 M 17β-estradiol, a concentration which induces maximum focus development, and various concentrations of GIP (10^-8 M-10^-13 M) in nonestrogenic DC5 medium and estrogenic DF5 medium which contains high levels of bovine alpha-fetoprotein (5% fetal bovine serum supplemented). After 14 days the cultures were fixed with formalin in pH 7.4 buffer (see Gierthy, J. F. et al. 1993) and stained with 1% rhodamine B. Foci were counted by using an automated colony counter modified to magnify the image of the microscopic multicellular foci. The foci retained the red rhodamine B stain to a greater extent than did surrounding monolayer cells, affording appropriate contrast for enumeration.
# [2] = test system: mouse mammary tumor 6WI-1; assay type: in vivo
# Experimental: A second assay was also used to assess the percent of inhibition for the various fragments. […] The procedure of Parsons et al. was used in this assay (see Parsons et al., Cancer investigation 4(2):109-126 (1986)). The mouse mammary tumor 6WI-1 normally kills animals within 12-15 days. In this assay, the tumor cells were injected into the body cavity of live mice. […] The inhibition of tumor growth is indicated by percentage. […] Unless otherwise indicated, the dose of peptide or peptide fragment was injected into the body cavity of the mice on day 1 and every day for 15 days. Percent inhibition was measured on day 15.
# [3] = test system: diethylstilbestrol (DES)-stimulated growth of mouse uterus; test: In vivo wet weight bioassay, inhibition of DES-stimulated growth of uteri; settings: for Percent Growth Inhibition: immature mouse uterus
# Experimental: An in vivo wet weight bioassay measuring inhibition of diethylstilbestrol (DES)-stimulated growth was also performed. The procedure of Mizejewski et al. (see previous citations) was used for the wet weight assay. The applicability of the wet weight bioassay for measuring DES-stimulated growth of uteri is disclosed by Korach, K. S. et al., "Estrogenic activity in vivo and in vitro of some diethylstilbestrol metabolites and analogs", Proc Natl Acad Sci USA 75:468-471 (1978).
# Briefly, the synthesized powdered peptide was reconstituted in saline (1 mg/ml) to form a stock solution of the GIP. The stock solution was appropriately diluted to provide dosages of 10 ng to 100 μg/mouse. 0.1 ml of the appropriately diluted GIP was injected intraperitoneally into 15-18 day old Nya:NYLAR female mice. Control mice were injected with saline. 1 hour after this first injection, a DES challenge of 0.5 micrograms of DES in 0.1 ml saline was given to determine the change in uterine responsiveness to DES resulting from exposure to the first injection. 23 hours after the second injection, uteri were dissected, trimmed free of connective tissue and immediately weighed. The uterine wet weights were normalized to mouse body weight (mg uterine weight/g of body weight) to compensate for differences in body weight among litters of the same age. Percent inhibition of DES-stimulated uterine growth was calculated as described by Mizejewski et al. (1983).
substance,measurement,setting,value
Leu Ser Glu Asp Lys Leu Leu Ala Cys Gly Glu Gly Ala Ala Asp Ile ile Ile Gly His Leu Cys Ile Arg His Glu Met Thr Pro Val Ash Pro Gly Val (LSEDKLLACGEGAADIIIGHLCIRHEMTPVNPGV) [GIP],inhibition in the MCF-7 cell culture assays,[1]; 10^-10 to 10^-13 M peptide concentration,60-70%
same,Percent Foci Inhibition,[1]; 14 days,60-70%
same,Percent Foci Inhibition,"[1]; peptide molarity 10^-11 -10^-13, 14 days",60-74% and 50-60%
same,Percent Foci Inhibition,"[1]; peptide molarity 10^-12, added human AFP",40%
same,maximum inhibition of DF5 induced foci development,"[1]; estrogenic DF5 medium, GIP 10^-10 to 10^-13 M",74%
same,concentration at which estrogenic foci induction starts,"[1]; nonestrogenic DC5 medium, dose responsive",10^-8 M
same,Percent Growth Inhibition,"[2]; adult mouse, 100 μg per mouse daily for 15 days, 0.3-1.0×10^6 tumor cells per mouse, day 15",97%
same,Percent Growth Inhibition,"[2]; adult mouse, 100 μg per mouse daily for 15 days, 1.1-4.0×10^6 tumor cells per mouse, day 15",79%
same,Percent Growth Inhibition,"[2]; adult mouse, 1.1-4.0 × 10^6 tumor cells mixed with 100 μg of the peptide, injected only on day 1",85%
same,Percent Growth Inhibition,"[2]; immature mouse, 1000 μg per mouse daily for 15 days, 0.3-1.0×10^6 tumor cells per mouse, day 15",57%
same,Percent Growth Inhibition,"[2]; immature mouse, 1000 μg per mouse daily for 15 days, 1.1-4.0×10^6 tumor cells per mouse, day 15",49%
same,inhibition of DES-induced growth (range over Table 3),[3]; 10ng to 100 μg/mouse,14-27%
same,Percent Growth Inhibition,[3]; 10 ng per mouse,27%
same,Percent Growth Inhibition,[3]; 100 ng per mouse,25%
same,Percent Growth Inhibition,"[3]; 800 ng per mouse i.p., DES 0.5 micrograms",18%
same,Percent Growth Inhibition,[3]; 1 μg per mouse,22%
same,Percent Growth Inhibition,[3]; 10 μg per mouse,20%
same,Percent Growth Inhibition,[3]; 100 μg per mouse,14%
same,most effective dose,"[3]; immature uterus, produced 27% growth inhibition",10 ng/mouse
